Measured values: PMC7270110, “Labeled oxytocin administered via the intranasal route reaches the brain in rhesus macaques” (Nature Communications, 2020)

Assay: Brain tissue concentration of endogenous OT (d0OT) by LC-MS/MS (terminal experiment)
Format: in vivo, rhesus macaques (Macaca mulatta)
Parameters: key: ND: not detected; +: detected but not quantifiable
Conditions: for Concentrations of endogenous brain oxytocin (OT): molarity calculated for extracellular fluid volume; for BRAIN OT concentration (endogenous): LC-MS/MS
Experimental: Monkeys were divided into three groups, each with two monkeys; each group received the following in a terminal study at the 5th week: Group 1 (Monkeys ID# 1 and ID# 5) received 40 IU of d5OT IN, Group 2 received 80 IU of d5OT IN (Monkeys ID# 2 and ID# 4) and Group 3 received 80 IU of d5OT IV (Monkeys ID# 3 and ID# 6). Animals were perfused on average, 140 ± 7 (mean ± SD) min after d5OT administration (range = 135–149 min) (Table 4). Plasma and CSF were drawn just before administration of d5OT, at the midpoint between d5OT administration and perfusion (~60 min post-d5OT administration), and just before perfusion.
Brain tissue distribution of d5OT, as well as the endogenous concentrations of OT (d0OT), were measured in the following 12 brain regions: cerebellum, brainstem, striatum, amygdala, thalamus, visual cortex, insular cortex, hypothalamus, hippocampus, mPFC (Brodmann areas 32,25,24), dPFC (Brodmann areas 46,9,10), and OFC (Brodmann areas 14,13,12) (Tables 1, 2 and 3).
Brain tissue sample preparation: Samples (~1.5 mg per sample) were individually weighed and placed into 12 mm × 75 mm glass tubes containing 1.5 ml ice-cold 1 M acetic acid and 30 µl of OT-d10 internal standard. Tissues were homogenized on ice and the resulting homogenates were poured into individual 15 ml polystyrene tubes. The original glass tube was rinsed with 1 ml acetonitrile, and this rinse was added to the appropriate 15 ml polystyrene tube containing the homogenate. After all homogenizations were complete, 3 ml acetonitrile was added to each tube and extraction proceeded, as described for the plasma and CSF samples.
LC–MS/MS instrument parameters: Microtiter plates were prepared, as described above, and loaded onto a SIL-30ACMP autosampler set at 4 °C (Shimadzu). Forty microliters of each standard, QC or sample were injected onto an ACE Excel 2 C18-PFP 50 mm × 2.1 mm column (Advanced Chromatography Technologies, LTD, Aberdeen, Scotland) at 50 °C using reversed-phase chromatography. Mobile phase A was 0.1% formic acid in water and mobile phase B was 0.1% formic acid in ACN. The LC time gradient was created using two Nexera LC-30AD pumps (Shimadzu) running at 0.5 ml/min. Chromatography for serum and CSF samples began at 10% B and ended at 16% B at 3.6 min. One minute at 60% B was then required to wash the column, and the pumps re-equilibrated at 10% B for an additional 1.7 min (total run time ~6 min). Outside of the 1.55–3.55 min window during which OT eluted, a divert valve sent the LC effluent to waste.
Heated electrospray […] in positive mode, with scheduled multiple reaction monitoring (MRM) on a Shimadzu LCMS-8050, was used for detection of OT. The interface temperature was 270 °C and heat block temperature was 170 °C. Gas was supplied by a Peak Genius 1051 nitrogen and air generator (Peak Scientific, Inchinnan, UK). Nitrogen gas was used for nebulizing (1 L/min) and drying (8.2 L/min), while air was used for heating (7.8 L/min). A capillary B needle was used in the interface. Needle protrusion was set to 1.25 mm and probe distance was set to 1.0 mm; both were determined empirically. Argon (Airgas, Radnor, PA) was used for the collision-induced dissociation at 330 kPa. The MS/MS conditions for OT were optimized using the automated MRM optimization procedure in LabSolutions software (Shimadzu). We collected two MRM transitions each, for d0OT (1007.40 > 723.40 and 1007.40 > 285.30), d5OT (1012.00 > 723.40 and 1012.00 > 290.35), and d10OT (1017.70 > 723.35 and 1017.70 > 295.40); the first transition listed in each case was used for quantitation, while the second was used as a reference ion. Retention times for d0OT, d5OT, and d10OT were 3.290, 3.270, and 3.253 min, respectively.
The sensitivities of each assay within the method were determined by the lowest and highest concentration calibrators in the calibration curve. The lower limit of quantitation (LLOQ) for d0OT was 10 pg/ml (4 pg/col); the LLOQ for d5OT was 100 pg/ml (40 pg/col). […]

Concentrations of endogenous brain oxytocin (OT) (Amygdala, 40 IN, monkey #5 (F)): 2.14e-07 M
Concentrations of endogenous brain oxytocin (OT) (Amygdala, 80 IN, monkey #2 (M)): 3.2e-08 M
Concentrations of endogenous brain oxytocin (OT) (Amygdala, 80 IN, monkey #4 (M)): 1.31e-07 M
Concentrations of endogenous brain oxytocin (OT) (Amygdala, 80 IV, monkey #3 (F)): 2.5e-08 M
Concentrations of endogenous brain oxytocin (OT) (Amygdala, 80 IV, monkey #6 (F)): 4e-08 M
BRAIN OT concentration (endogenous) (Amygdala, after d5OT 40 IU IN, monkey #5 (F), perfused 138 min post-dose): 39.11 pg/mg
BRAIN OT concentration (endogenous) (Amygdala, after d5OT 80 IU IN, monkey #2 (M), perfused 136 min post-dose): 5.82 pg/mg
BRAIN OT concentration (endogenous) (Amygdala, after d5OT 80 IU IN, monkey #4 (M), perfused 135 min post-dose): 23.97 pg/mg
BRAIN OT concentration (endogenous) (Amygdala, after d5OT 80 IU IV, monkey #3 (F), perfused 149 min post-dose): 4.63 pg/mg
BRAIN OT concentration (endogenous) (Amygdala, after d5OT 80 IU IV, monkey #6 (F), perfused 135 min post-dose): 7.26 pg/mg
Concentrations of endogenous brain oxytocin (OT) (Brainstem, 40 IN, monkey #1 (F)): 4e-08 M
Concentrations of endogenous brain oxytocin (OT) (Brainstem, 40 IN, monkey #5 (F)): 5.1e-08 M
Concentrations of endogenous brain oxytocin (OT) (Brainstem, 80 IN, monkey #2 (M)): 2.8e-08 M
Concentrations of endogenous brain oxytocin (OT) (Brainstem, 80 IN, monkey #4 (M)): 1.9e-08 M
Concentrations of endogenous brain oxytocin (OT) (Brainstem, 80 IV, monkey #3 (F)): 6e-08 M
Concentrations of endogenous brain oxytocin (OT) (Brainstem, 80 IV, monkey #6 (F)): 2e-08 M
BRAIN OT concentration (endogenous) (Brainstem, after d5OT 40 IU IN, monkey #1 (F), perfused 148 min post-dose): 7.27 pg/mg
BRAIN OT concentration (endogenous) (Brainstem, after d5OT 40 IU IN, monkey #5 (F), perfused 138 min post-dose): 9.34 pg/mg
BRAIN OT concentration (endogenous) (Brainstem, after d5OT 80 IU IN, monkey #2 (M), perfused 136 min post-dose): 5.11 pg/mg
BRAIN OT concentration (endogenous) (Brainstem, after d5OT 80 IU IN, monkey #4 (M), perfused 135 min post-dose): 3.55 pg/mg
BRAIN OT concentration (endogenous) (Brainstem, after d5OT 80 IU IV, monkey #3 (F), perfused 149 min post-dose): 10.93 pg/mg
BRAIN OT concentration (endogenous) (Brainstem, after d5OT 80 IU IV, monkey #6 (F), perfused 135 min post-dose): 3.58 pg/mg
Concentrations of endogenous brain oxytocin (OT) (Cerebellum, 40 IN, monkey #1 (F)): 1.2e-08 M
Concentrations of endogenous brain oxytocin (OT) (Cerebellum, 40 IN, monkey #5 (F)): <1e-09 M
Concentrations of endogenous brain oxytocin (OT) (Cerebellum, 80 IN, monkey #4 (M)): <1e-09 M
Concentrations of endogenous brain oxytocin (OT) (Cerebellum, 80 IV, monkey #6 (F)): +
BRAIN OT concentration (endogenous) (Cerebellum, after d5OT 40 IU IN, monkey #1 (F), perfused 148 min post-dose): 2.16 pg/mg
BRAIN OT concentration (endogenous) (Cerebellum, after d5OT 40 IU IN, monkey #5 (F), perfused 138 min post-dose): 0.12 pg/mg
BRAIN OT concentration (endogenous) (Cerebellum, after d5OT 80 IU IN, monkey #4 (M), perfused 135 min post-dose): 0.06 pg/mg
BRAIN OT concentration (endogenous) (Cerebellum, after d5OT 80 IU IV, monkey #6 (F), perfused 135 min post-dose): +
Concentrations of endogenous brain oxytocin (OT) (Hippocampus, 40 IN, monkey #1 (F)): 5e-09 M
Concentrations of endogenous brain oxytocin (OT) (Hippocampus, 40 IN, monkey #5 (F)): 5e-09 M
Concentrations of endogenous brain oxytocin (OT) (Hippocampus, 80 IN, monkey #2 (M)): 1.5e-08 M
Concentrations of endogenous brain oxytocin (OT) (Hippocampus, 80 IN, monkey #4 (M)): 1.5e-08 M
Concentrations of endogenous brain oxytocin (OT) (Hippocampus, 80 IV, monkey #3 (F)): 5e-09 M
Concentrations of endogenous brain oxytocin (OT) (Hippocampus, 80 IV, monkey #6 (F)): 5e-09 M
BRAIN OT concentration (endogenous) (Hippocampus, after d5OT 40 IU IN, monkey #1 (F), perfused 148 min post-dose): 0.99 pg/mg
BRAIN OT concentration (endogenous) (Hippocampus, after d5OT 40 IU IN, monkey #5 (F), perfused 138 min post-dose): 0.99 pg/mg
BRAIN OT concentration (endogenous) (Hippocampus, after d5OT 80 IU IN, monkey #2 (M), perfused 136 min post-dose): 2.83 pg/mg
BRAIN OT concentration (endogenous) (Hippocampus, after d5OT 80 IU IV, monkey #3 (F), perfused 149 min post-dose): 0.99 pg/mg
BRAIN OT concentration (endogenous) (Hypothalamus, after d5OT 40 IU IN, monkey #1 (F), perfused 148 min post-dose): 2186.74 pg/mg
BRAIN OT concentration (endogenous) (Hypothalamus, after d5OT 80 IU IN, monkey #2 (M), perfused 136 min post-dose): 943.27 pg/mg
BRAIN OT concentration (endogenous) (Hypothalamus, after d5OT 80 IU IV, monkey #3 (F), perfused 149 min post-dose): 1491.96 pg/mg
Concentrations of endogenous brain oxytocin (OT) (Insular Cortex, 40 IN, monkey #5 (F)): 2e-09 M
Concentrations of endogenous brain oxytocin (OT) (Insular Cortex, 80 IN, monkey #4 (M)): <1e-09 M
Concentrations of endogenous brain oxytocin (OT) (Insular Cortex, 80 IV, monkey #3 (F)): 1e-09 M
SMILES: CC[C@H](C)[C@@H]1NC(=O)[C@H](Cc2ccc(O)cc2)NC(=O)[C@@H](N)CSSC[C@@H](C(=O)N2CCC[C@H]2C(=O)N[C@@H](CC(C)C)C(=O)NCC(N)=O)NC(=O)[C@H](CC(N)=O)NC(=O)[C@H](CCC(N)=O)NC1=O [OT, oxytocin]
